Experimental data reported in patent US10167262B2, “Herbicidal substituted 3-arylpyrazoles” (FMC CORPORATION, priority 2014, dated 2019).

Experiments:
Assay type in all cases: in vivo
[1] = system: waterhemp_RES2, (ALS & HPPD resistant common waterhemp, Amaranthus rudis); assay: Test E postemergence greenhouse test, plant response rating 0-100; conditions: scale 0 to 100
Procedure, shortened: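 Resistant waterhemp biotypes grown in peat/vermiculite medium and treated postemergence at 2–18 cm height (1- to 4-leaf stage). Kept in greenhouse 14 to 21 days, then visually rated against untreated controls on a 0–100 scale (0 no effect, 100 complete control).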

[2] = system: palmer pigweed (Amaranthus palmeri); assay: Test E pre-/postemergence greenhouse test, plant response rating 0-100; conditions: scale 0 to 100; for Plant response rating, Pigweed, Palmer: Postemergence; for Pigweed, Palmer plant response rating: Preemergence
Procedure, shortened: (§1)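 Visual control score, 0–100 relative to untreated plants, recorded 14–21 days after spraying. Treatments: preemergence on silt loam seedbeds and postemergence at the 1- to 4-leaf stage, with compound in surfactant-containing solvent.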

[3] = system: Brazilian crabgrass (Digitaria horizontalis); assay: as above; conditions: scale 0 to 100; for Plant response rating, Crabgrass, Brazil: Postemergence; for Crabgrass, Brazil plant response rating: Preemergence
Procedure, shortened: as §1

[4] = system: waterhemp (common waterhemp, Amaranthus rudis); assay: as above; conditions: scale 0 to 100; for Plant response rating, Waterhemp: Postemergence; for Waterhemp plant response rating: Preemergence
Procedure, shortened: as §1

corn (Zea mays) = assay: as above; conditions: scale 0 to 100; for Plant response rating, Corn: Postemergence; for Corn plant response rating: Preemergence
Procedure, shortened: as §1

[5] = system: field bindweed (Convolvulus arvensis); assay: as above; conditions: scale 0 to 100; for Plant response rating, Field Bindweed: Postemergence; for Field Bindweed plant response rating: Preemergence
Procedure, shortened: as §1

[6] = system: arrowleaf sida (Sida rhombifolia); assay: as above; conditions: for Plant response rating, Arrowleaf Sida: Postemergence; for Arrowleaf Sida plant response rating: Preemergence
Procedure, shortened: as §1

[7] = system: Italian ryegrass (Lolium multiflorum); assay: as above; conditions: scale 0 to 100; for Plant response rating, Ryegrass, Italian: Postemergence; for Ryegrass, Italian plant response rating: Preemergence
Procedure, shortened: as §1

[8] = system: dayflower (Virginia (VA) dayflower, Commelina virginica); assay: as above; conditions: scale 0 to 100; for Plant response rating, Dayflower, VA: Postemergence; for Dayflower, VA plant response rating: Preemergence
Procedure, shortened: as §1

[9] = system: hairy beggarticks (Bidens pilosa); assay: as above; conditions: scale 0 to 100; for Plant response rating, Beggarticks: Postemergence; for Beggarticks plant response rating: Preemergence
Procedure, shortened: as §1

[10] = system: wild poinsettia (Euphorbia heterophylla); assay: as above; conditions: scale 0 to 100; for Plant response rating, Poinsettia, Wild: Postemergence; for Poinsettia, Wild plant response rating: Preemergence
Procedure, shortened: as §1

[11] = system: fall panicum (Panicum dichotomiflorum); assay: as above; conditions: scale 0 to 100; for Plant response rating, Panicum, Fall: Postemergence; for Panicum, Fall plant response rating: Preemergence
Procedure, shortened: as §1

O=Cn1cc(C(=O)c2ccccc2)c(-c2cc(Cl)cc(Cl)c2)n1 [Compound 28]
100: Pigweed, Palmer plant response rating ([2]; 500 g ai/ha) | Arrowleaf Sida plant response rating ([6]; 500 g ai/ha, scale 0 to 100)
70: Plant response rating, Pigweed, Palmer ([2]; 62 g ai/ha) | Plant response rating, Pigweed, Palmer ([2]; 125 g ai/ha) | Beggarticks plant response rating ([9]; 250 g ai/ha) | Beggarticks plant response rating ([9]; 500 g ai/ha)
10: Plant response rating, Field Bindweed ([5]; 250 g ai/ha) | Ryegrass, Italian plant response rating ([7]; 250 g ai/ha) | Plant response rating, Poinsettia, Wild ([10]; 250 g ai/ha)
0: Pigweed, Palmer plant response rating ([2]; 31 g ai/ha) | Pigweed, Palmer plant response rating ([2]; 62 g ai/ha) | Pigweed, Palmer plant response rating ([2]; 125 g ai/ha) | Plant response rating, Crabgrass, Brazil ([3]; 31 g ai/ha) | Plant response rating, Crabgrass, Brazil ([3]; 62 g ai/ha) | Plant response rating, Crabgrass, Brazil ([3]; 125 g ai/ha) | Plant response rating, Crabgrass, Brazil ([3]; 250 g ai/ha) | Plant response rating, Crabgrass, Brazil ([3]; 500 g ai/ha) | Crabgrass, Brazil plant response rating ([3]; 31 g ai/ha) | Crabgrass, Brazil plant response rating ([3]; 62 g ai/ha) | Crabgrass, Brazil plant response rating ([3]; 125 g ai/ha) | Waterhemp plant response rating ([4]; 31 g ai/ha) | Waterhemp plant response rating ([4]; 62 g ai/ha) | Plant response rating, Corn (corn (Zea mays); 31 g ai/ha) | Plant response rating, Corn (corn (Zea mays); 62 g ai/ha) | Plant response rating, Corn (corn (Zea mays); 125 g ai/ha) | Plant response rating, Corn (corn (Zea mays); 250 g ai/ha) | Plant response rating, Corn (corn (Zea mays); 500 g ai/ha) | Corn plant response rating (corn (Zea mays); 31 g ai/ha) | Corn plant response rating (corn (Zea mays); 62 g ai/ha) | Corn plant response rating (corn (Zea mays); 125 g ai/ha) | Corn plant response rating (corn (Zea mays); 250 g ai/ha) | Corn plant response rating (corn (Zea mays); 500 g ai/ha) | Plant response rating, Field Bindweed ([5]; 31 g ai/ha) | Plant response rating, Field Bindweed ([5]; 62 g ai/ha) | Plant response rating, Field Bindweed ([5]; 125 g ai/ha) | Field Bindweed plant response rating ([5]; 31 g ai/ha) | Field Bindweed plant response rating ([5]; 62 g ai/ha) | Field Bindweed plant response rating ([5]; 125 g ai/ha) | Field Bindweed plant response rating ([5]; 250 g ai/ha) | Field Bindweed plant response rating ([5]; 500 g ai/ha) | Arrowleaf Sida plant response rating ([6]; 31 g ai/ha, scale 0 to 100) | Plant response rating, Ryegrass, Italian ([7]; 31 g ai/ha) | Plant response rating, Ryegrass, Italian ([7]; 62 g ai/ha) | Plant response rating, Ryegrass, Italian ([7]; 125 g ai/ha) | Plant response rating, Ryegrass, Italian ([7]; 250 g ai/ha) | Plant response rating, Ryegrass, Italian ([7]; 500 g ai/ha) | Ryegrass, Italian plant response rating ([7]; 31 g ai/ha) | Ryegrass, Italian plant response rating ([7]; 62 g ai/ha) | Ryegrass, Italian plant response rating ([7]; 125 g ai/ha) | Plant response rating, Dayflower, VA ([8]; 31 g ai/ha) | Plant response rating, Dayflower, VA ([8]; 62 g ai/ha) | Plant response rating, Dayflower, VA ([8]; 125 g ai/ha) | Plant response rating, Dayflower, VA ([8]; 250 g ai/ha) | Plant response rating, Dayflower, VA ([8]; 500 g ai/ha) | Dayflower, VA plant response rating ([8]; 31 g ai/ha) | Dayflower, VA plant response rating ([8]; 62 g ai/ha) | Dayflower, VA plant response rating ([8]; 125 g ai/ha) | Dayflower, VA plant response rating ([8]; 250 g ai/ha) | Dayflower, VA plant response rating ([8]; 500 g ai/ha) | Beggarticks plant response rating ([9]; 31 g ai/ha) | Beggarticks plant response rating ([9]; 62 g ai/ha) | Plant response rating, Poinsettia, Wild ([10]; 31 g ai/ha) | Plant response rating, Poinsettia, Wild ([10]; 62 g ai/ha) | Plant response rating, Poinsettia, Wild ([10]; 125 g ai/ha) | Poinsettia, Wild plant response rating ([10]; 31 g ai/ha) | Poinsettia, Wild plant response rating ([10]; 62 g ai/ha) | Poinsettia, Wild plant response rating ([10]; 125 g ai/ha) | Poinsettia, Wild plant response rating ([10]; 250 g ai/ha) | Poinsettia, Wild plant response rating ([10]; 500 g ai/ha) | Plant response rating, Panicum, Fall ([11]; 31 g ai/ha) | Plant response rating, Panicum, Fall ([11]; 62 g ai/ha) | Plant response rating, Panicum, Fall ([11]; 125 g ai/ha) | Plant response rating, Panicum, Fall ([11]; 250 g ai/ha) | Plant response rating, Panicum, Fall ([11]; 500 g ai/ha) | Panicum, Fall plant response rating ([11]; 31 g ai/ha) | Panicum, Fall plant response rating ([11]; 62 g ai/ha) | Panicum, Fall plant response rating ([11]; 125 g ai/ha) | Panicum, Fall plant response rating ([11]; 250 g ai/ha) | Panicum, Fall plant response rating ([11]; 500 g ai/ha)
15: Plant response rating, Poinsettia, Wild ([10]; 500 g ai/ha)
40: Beggarticks plant response rating ([9]; 125 g ai/ha)
80: Plant response rating, Waterhemp_RES2 ([1]; 125 g ai/ha) | Plant response rating, Pigweed, Palmer ([2]; 250 g ai/ha) | Plant response rating, Waterhemp ([4]; 31 g ai/ha) | Plant response rating, Beggarticks ([9]; 31 g ai/ha)
90: Plant response rating, Waterhemp_RES2 ([1]; 500 g ai/ha) | Plant response rating, Pigweed, Palmer ([2]; 500 g ai/ha) | Plant response rating, Waterhemp ([4]; 250 g ai/ha) | Plant response rating, Waterhemp ([4]; 500 g ai/ha) | Plant response rating, Arrowleaf Sida ([6]; 500 g ai/ha, scale 0 to 100 (0 no effect, 100 complete control)) | Arrowleaf Sida plant response rating ([6]; 250 g ai/ha, scale 0 to 100) | Plant response rating, Beggarticks ([9]; 62 g ai/ha)
75: Plant response rating, Arrowleaf Sida ([6]; 125 g ai/ha, scale 0 to 100) | Arrowleaf Sida plant response rating ([6]; 125 g ai/ha, scale 0 to 100)
60: Plant response rating, Waterhemp_RES2 ([1]; 62 g ai/ha) | Plant response rating, Arrowleaf Sida ([6]; 62 g ai/ha, scale 0 to 100)
65: Crabgrass, Brazil plant response rating ([3]; 500 g ai/ha) | Waterhemp plant response rating ([4]; 125 g ai/ha) | Plant response rating, Arrowleaf Sida ([6]; 31 g ai/ha, scale 0 to 100)
25: Pigweed, Palmer plant response rating ([2]; 250 g ai/ha)
85: Plant response rating, Waterhemp_RES2 ([1]; 250 g ai/ha) | Plant response rating, Waterhemp ([4]; 62 g ai/ha) | Plant response rating, Waterhemp ([4]; 125 g ai/ha) | Plant response rating, Arrowleaf Sida ([6]; 250 g ai/ha, scale 0 to 100)
95: Waterhemp plant response rating ([4]; 250 g ai/ha) | Waterhemp plant response rating ([4]; 500 g ai/ha) | Plant response rating, Beggarticks ([9]; 125 g ai/ha)
50: Plant response rating, Waterhemp_RES2 ([1]; 31 g ai/ha) | Plant response rating, Pigweed, Palmer ([2]; 31 g ai/ha)
20: Plant response rating, Field Bindweed ([5]; 500 g ai/ha) | Arrowleaf Sida plant response rating ([6]; 62 g ai/ha, scale 0 to 100) | Ryegrass, Italian plant response rating ([7]; 500 g ai/ha)
35: Crabgrass, Brazil plant response rating ([3]; 250 g ai/ha)
98: Plant response rating, Beggarticks ([9]; 250 g ai/ha) | Plant response rating, Beggarticks ([9]; 500 g ai/ha)
